Source: patent US20150320709A1, “METHODS AND COMPOSITIONS FOR FACILITATING WEIGHT LOSS BY ADMINISTRATION OF THYROID HORMONES” (priority 2011, published 2015)

Assays:
Assay type in all cases: in vivo, human
[1] = Body weight of weight loss program patients on thyroid hormone treatment
Method: The first patient example is a person, 5′2″, weight 268 lbs, body mass index (BMI) 49 (nl 19-24; overweight 25-29; obesity≧30). Baseline blood pressure was 110/74, blood sugar (BS) was 153 mg/dL 10 days after their first visit. Their medical problems at baseline included obesity, type 2 diabetes mellitus (DM2), high blood pressure (HTN), fatigue, depression, and asthma. Their medications included glipizide 10 mg daily, amitriptyline 50 mg daily, metoprolol 50 mg daily, furosemide 40 mg daily, potassium chloride, lisinopril 10 mg daily, Advair Discus 500/50 twice daily (bid), and montelukast 10 mg daily. They were started on our comprehensive program. Five months after starting their weight loss treatment, they developed symptoms of hypothyroidism with constipation and fatigue. They had lost 28 lbs by this time and was having difficulty losing more weight even though they were eating less than they were before their weight loss treatment began. At the start of treatment, their FT4 was 0.9 ng/dL (nl 0.7-1.48). At the time of their low thyroid symptoms, their FT3 was 2.9 pg/mL (nl 1.71-3.71) and their FT4 was 0.91 ng/dL (nl 0.7-1.48). They were then treated with thyroid hormone (desiccated thyroid with a ratio of T4:T3 of about 4:1) at 60 mg daily for 6 days to acclimate, then increased to 120 mg daily. […] After two years on their weight loss treatment, their weight was 231 lbs. […]

[2] = Blood pressure and pulse of weight loss program patients on thyroid hormone treatment
Method: (§1) The first patient example is a person, 5′2″, weight 268 lbs, body mass index (BMI) 49 (nl 19-24; overweight 25-29; obesity≧30). Baseline blood pressure was 110/74, blood sugar (BS) was 153 mg/dL 10 days after their first visit. Their medical problems at baseline included obesity, type 2 diabetes mellitus (DM2), high blood pressure (HTN), fatigue, depression, and asthma. Their medications included glipizide 10 mg daily, amitriptyline 50 mg daily, metoprolol 50 mg daily, furosemide 40 mg daily, potassium chloride, lisinopril 10 mg daily, Advair Discus 500/50 twice daily (bid), and montelukast 10 mg daily. They were started on our comprehensive program. Five months after starting their weight loss treatment, they developed symptoms of hypothyroidism with constipation and fatigue. They had lost 28 lbs by this time and was having difficulty losing more weight even though they were eating less than they were before their weight loss treatment began. At the start of treatment, their FT4 was 0.9 ng/dL (nl 0.7-1.48). At the time of their low thyroid symptoms, their FT3 was 2.9 pg/mL (nl 1.71-3.71) and their FT4 was 0.91 ng/dL (nl 0.7-1.48). They were then treated with thyroid hormone (desiccated thyroid with a ratio of T4:T3 of about 4:1) at 60 mg daily for 6 days to acclimate, then increased to 120 mg daily. […] After two years on their weight loss treatment, their weight was 231 lbs. […] We tested for rT3 at this point. Their labs on the 150 mg dose of desiccated thyroid were: rT3 394 pg/mL (nl 90-350), FT3 3.94 pg/mL (nl 1.71-3.71), and FT4 1.24 ng/dL (nl 0.7-1.48). The task of bringing down their rT3 was then addressed. Over a period of a few months, their desiccated thyroid hormone was discontinued and instead the patient was given gradually increasing doses of T3 only, starting at 20 mcg daily and gradually increasing the T3 to 60 mcg bid. Five months after starting on T3 with increasing doses, their weight had dropped to 209 lbs. Their BP was 118/66 mmHg with pulse of 74 on lisinopril 10 mg daily, metoprolol 50 mg bid, and furosemide 40 mg daily. Instead of glipizide, they were taking metformin 500 mg bid. […] Their most recent labs on 60 mcg bid of T3 were FT3 3.8 pg/mL (nl 1.71-3.71), FT4 0.64 ng/dL (nl 0.7-1.48) and rT3 137 pg/mL (nl 90-350). Four months prior to this visit their BS was 125 mg/dl.
(§2) The second patient example is a person, 5′2″, weight 150 lbs, BMI 28 (nl 18.5-24.9; overweight 25-29.9; obesity≧30), with HTN. Their blood pressure was slightly elevated at 148/85 (on lisinopril 5 mg daily). Their medical problems at baseline included history of Hashimoto's thyroiditis, borderline high TSH, elevated lipids, and HTN. Their medications were lisinopril 5 mg daily, estradiol 2 mg daily, and rofecoxib 25 mg daily for osteoarthritis of their large joints. […]

[3] = Low thyroid symptoms / clinical status of weight loss program patients on thyroid hormone treatment
Method: as §1, §2

[4] = as above; settings: for reported symptoms: Patient Example 4
[5] = Patient Example 2, T3 only, 25 mcg bid
[6] = Patient Example 1, on T3 only, with lisinopril, metoprolol, furosemide

SMILES: N[C@@H](Cc1cc(I)c(Oc2ccc(O)c(I)c2)c(I)c1)C(=O)O [T3, (2S)-2-amino-3-[4-(4-hydroxy-3-iodo-phenoxy)-3,5-diiodo-phenyl]propanoic acid]
- weight ([1]; Patient Example 1, five months after starting T3 only, 20 mcg daily increasing to 60 mcg bid): 209 lbs
- weight [1, 5]: 125 lbs
- BP [2, 6]: 118/66
- pulse [2, 6]: 74
- pulse [2, 5]: 72
- BP ([2]; Patient Example 2, T3 only, 25 mcg bid, on no medications): 122/80
- clinical thyroid status ([3]; Patient Example 1, on T3 only): clinically euthyroid
- lipids [3, 5]: improved compared to baseline
- low thyroid symptoms [3, 5]: no longer suffered from hair loss; their bowels were normal, they felt well
- low thyroid symptoms ([4]; Patient Example 3, T3 25 mcg t.i.d. alone, about a week after stopping desiccated thyroid): low thyroid symptoms returned
- reported symptoms ([4]; T3 50 mcg 2 PO q am and 1 PO 8-10 hours later, initial visit): feeling cold, hair loss and nail peeling
- reported symptoms ([4]; same T3 dose (not decreased), over 6 weeks later): continued to report suffering from fatigue and coldness
